Experimental data as given in US20250032651A1, “[177LU] LUTETIUM-PSMA I&T COMPOSITION AND DOSIMETRY, KIT, METHOD OF MAKING, AND METHOD OF USING THEREOF” (Curium US LLC, priority 2022, published 2025).
Where “and” joins values, the source holds several entries; their conditions need not be identical. Equal values may be shown once.

Experiment: Normal organ dosimetry Cycle 1: SPECT/CT, TIACs, OLINDA 2.2.3 absorbed radiation dose
Format: in vivo, human
Conditions: individual patients/doses
Procedure: This Example presents the biodistribution, dosimetry, and pharmacokinetics (PK) results of a PK/Dosimetry sub-study performed as part of a Phase III trial. Twenty-seven (27) patients were administered a target activity of 7.4±10% GBq of ^177Lu-PSMA-I&T and underwent single photon emission computed tomography (SPECT)/computed tomography (CT) imaging at four timepoints (4 h, 24 h, 48 h, and 168 h). Image data was analysed to compute time-activity curves (TACs) and subsequently time-integrated activity coefficients (TIACs) in each organ of interest and in organs showing appreciable and meaningful ^177Lu-PSMA-I&T activity. Organ Level Internal Dose Assessment (OLINDA 2.2.3) was used to compute organ and whole body absorbed radiation doses for each patient.
All participating sites underwent a rigorous site setup process during which all dose calibrators, scanners, and gamma counters used in the sub-study were calibrated. Sites were allowed to enroll patients in the sub-study only after the completion and approval of all site setup processes by Invicro. Patients underwent SPECT/CT imaging, with anatomical coverage typically extending from the salivary glands to the pelvis, following the administration of a targeted 7.4±10% GBq of ^177Lu-PSMA-I&T at cycle 1. SPECT/CT imaging was performed at four timepoints: 4 h, 24 h, 48 h, and 168 h post-injection. Additionally, a subset of patients imaged at Cycle 1 (16 out of 27), were also imaged at Cycle 3 (Table 2).
The imaging data was analyzed using Invicro's VivoQuant software, a validated software used in a 21 CFR § 11-compliant workflow. The general quantification approach was based on the principles detailed in the Medical Internal Radiation Dose (MIRD) Pamphlet No. 16, No 23, and No 26 as appropriate.
Volume of interest (VOI) (kidneys, bladder, liver, lumbar vertebrae L2-L4, lacrimal glands, salivary glands [parotid and submandibular glands], and whole body) were delineated on each dataset by a trained image analyst. […] Organs were segmented either by drawing the entire contour of the organ, or by placing a sphere in a representative region of the organ and then multiplying by the organ's effective mass (based on patient's height and weight). Segmentation methods for each organ are specified in Table 3 and were consistently applied to each patient.
Clearance of the radiopharmaceutical was derived from a data-appropriate fit of each organ's TAC. Depending on the TAC's shape, the data was fitted with the sum of one, two, or three exponentials, or using a rise and fall model. Fitting was performed with in-house Python software. TIACs were calculated through analytical integration of the curve fit extrapolated to infinity. […] A whole-body TAC was derived from delineating the imaged body. The remainder activity was determined by subtracting the cumulative organ TIACs from the whole body TIAC.
Organ TIACs were input into OLINDA 2.2.3 for the computation of organ and whole-body absorbed doses, using International Commission on Radiological Protection (ICRP)-103 weighing factors. The ICRP-89 derived male phantom was used for dose estimation. Organs and body mass as defined by ICRP-89 were scaled based on height and mass using patient effective mass.^4 The voiding bladder model as implemented in OLINDA was used to determine bladder TIAC, assuming a voiding interval of 4 hours. The human alimentary tract model (HAT model) described in ICRP 100 and implemented in OLINDA was used to compute doses to the small intestine, right colon, left colon and rectum for patients showing clearance through the GI tract. The fraction of injected activity (fIA) cleared via the GI tract was determined by taking the peak fIA in the GI tract over all the imaging timepoints. […] The Red Marrow mass in L2-L4 was assumed to be 6.7% of the total red marrow mass.

O=C([O-])CC[C@H](NC(=O)N[C@@H](CCCCNC(=O)CCCCCCC(=O)NCCCC[C@@H](NC(=O)[C@@H](Cc1ccccc1)NC(=O)[C@@H](Cc1ccc(O)c(I)c1)NC(=O)CC[C@H](C(=O)[O-])N1CCN(CC(=O)[O-])CCN(CC(=O)[O-])CCN(CC(=O)[O-])CC1)C(=O)[O-])C(=O)[O-])C(=O)[O-].[177Lu+3].[H+].[H+].[H+].[H+].[H+] [Lu-177 PSMA I&T]
Kidneys absorbed dose (68.9 µg PSMA I&T content): 0.31 Gy/GBq | Kidneys absorbed dose (71.6 µg PSMA I&T content): 0.36 Gy/GBq | Kidneys absorbed dose (72.1 µg PSMA I&T content): 0.32 Gy/GBq and 0.54 Gy/GBq | Kidneys absorbed dose (76.8 µg PSMA I&T content): 0.23 Gy/GBq | Kidneys absorbed dose (77.0 µg PSMA I&T content): 0.28 Gy/GBq and 0.56 Gy/GBq | Kidneys absorbed dose (77.7 µg PSMA I&T content): 0.41 Gy/GBq | Kidneys absorbed dose (79.0 µg PSMA I&T content): 0.53 Gy/GBq | Kidneys absorbed dose (79.4 µg PSMA I&T content): 0.81 Gy/GBq | Kidneys absorbed dose (79.5 µg PSMA I&T content): 0.30 Gy/GBq and 0.38 Gy/GBq | Kidneys absorbed dose (80.4 µg PSMA I&T content): 0.24 Gy/GBq | Kidneys absorbed dose (82.0 µg PSMA I&T content): 0.17 Gy/GBq | Kidneys absorbed dose (82.2 µg PSMA I&T content): 0.34 Gy/GBq | Kidneys absorbed dose (82.6 µg PSMA I&T content): 0.29 Gy/GBq | Kidneys absorbed dose (85.3 µg PSMA I&T content): 0.55 Gy/GBq | Kidneys absorbed dose (89.2 µg PSMA I&T content): 0.43 Gy/GBq | Kidneys absorbed dose (90.0 µg PSMA I&T content): 0.35 Gy/GBq | Kidneys absorbed dose (92.6 µg PSMA I&T content): 0.05 Gy/GBq and 0.45 Gy/GBq | Kidneys absorbed dose (99.2 µg PSMA I&T content): 0.57 Gy/GBq | Kidneys absorbed dose (105.1 µg PSMA I&T content): 0.48 Gy/GBq | Kidneys absorbed dose (108.5 µg PSMA I&T content): 0.27 Gy/GBq | Kidneys absorbed dose (110.6 µg PSMA I&T content): 0.64 Gy/GBq | Kidneys absorbed dose (119.1 µg PSMA I&T content): 0.28 Gy/GBq | Lacrimal Glands absorbed dose (72.1 µg PSMA I&T content): 0.19 Gy/GBq and 0.20 Gy/GBq | Lacrimal Glands absorbed dose (76.8 µg PSMA I&T content): 0.08 Gy/GBq | Lacrimal Glands absorbed dose (77.0 µg PSMA I&T content): 0.07 Gy/GBq and 0.06 Gy/GBq | Lacrimal Glands absorbed dose (77.7 µg PSMA I&T content): 0.66 Gy/GBq | Lacrimal Glands absorbed dose (79.0 µg PSMA I&T content): 0.16 Gy/GBq | Lacrimal Glands absorbed dose (79.4 µg PSMA I&T content): 0.63 Gy/GBq | Lacrimal Glands absorbed dose (79.5 µg PSMA I&T content): 0.26 Gy/GBq and 0.47 Gy/GBq | Lacrimal Glands absorbed dose (80.4 µg PSMA I&T content): 0.08 Gy/GBq | Lacrimal Glands absorbed dose (82.0 µg PSMA I&T content): 0.07 Gy/GBq | Lacrimal Glands absorbed dose (82.2 µg PSMA I&T content): 0.54 Gy/GBq | Lacrimal Glands absorbed dose (89.2 µg PSMA I&T content): 0.38 Gy/GBq | Lacrimal Glands absorbed dose (90.0 µg PSMA I&T content): 0.09 Gy/GBq | Lacrimal Glands absorbed dose (92.6 µg PSMA I&T content): 0.05 Gy/GBq and 0.04 Gy/GBq | Lacrimal Glands absorbed dose (105.1 µg PSMA I&T content): 1.19 Gy/GBq | Lacrimal Glands absorbed dose (108.5 µg PSMA I&T content): 0.94 Gy/GBq and 1.09 Gy/GBq | Lacrimal Glands absorbed dose (110.6 µg PSMA I&T content): 0.68 Gy/GBq | Lacrimal Glands absorbed dose (119.1 µg PSMA I&T content): 0.62 Gy/GBq | Liver absorbed dose (68.9 µg PSMA I&T content): 0.04 Gy/GBq | Liver absorbed dose (71.6 µg PSMA I&T content): 0.02 Gy/GBq | Liver absorbed dose (72.1 µg PSMA I&T content): 0.02 Gy/GBq | Liver absorbed dose (76.8 µg PSMA I&T content): 0.03 Gy/GBq | Liver absorbed dose (77.0 µg PSMA I&T content): 0.06 Gy/GBq and 0.02 Gy/GBq | Liver absorbed dose (77.7 µg PSMA I&T content): 0.04 Gy/GBq | Liver absorbed dose (79.0 µg PSMA I&T content): 0.03 Gy/GBq | Liver absorbed dose (79.4 µg PSMA I&T content): 0.03 Gy/GBq | Liver absorbed dose (79.5 µg PSMA I&T content): 0.03 Gy/GBq and 0.07 Gy/GBq | Liver absorbed dose (80.4 µg PSMA I&T content): 0.10 Gy/GBq | Liver absorbed dose (82.0 µg PSMA I&T content): 0.05 Gy/GBq | Liver absorbed dose (82.2 µg PSMA I&T content): 0.02 Gy/GBq | Liver absorbed dose (82.6 µg PSMA I&T content): 0.02 Gy/GBq | Liver absorbed dose (85.3 µg PSMA I&T content): 0.02 Gy/GBq | Liver absorbed dose (89.2 µg PSMA I&T content): 0.08 Gy/GBq | Liver absorbed dose (90.0 µg PSMA I&T content): 0.04 Gy/GBq | Liver absorbed dose (92.6 µg PSMA I&T content): 0.09 Gy/GBq and 0.01 Gy/GBq | Liver absorbed dose (99.2 µg PSMA I&T content): 0.04 Gy/GBq | Liver absorbed dose (105.1 µg PSMA I&T content): 0.06 Gy/GBq | Liver absorbed dose (108.5 µg PSMA I&T content): 0.07 Gy/GBq and 0.05 Gy/GBq | Liver absorbed dose (110.6 µg PSMA I&T content): 0.03 Gy/GBq | Liver absorbed dose (119.1 µg PSMA I&T content): 0.02 Gy/GBq | Salivary Glands absorbed dose (68.9 µg PSMA I&T content): 0.11 Gy/GBq | Salivary Glands absorbed dose (71.6 µg PSMA I&T content): 0.16 Gy/GBq | Salivary Glands absorbed dose (72.1 µg PSMA I&T content): 0.06 Gy/GBq and 0.00 Gy/GBq | Salivary Glands absorbed dose (76.8 µg PSMA I&T content): 0.11 Gy/GBq | Salivary Glands absorbed dose (77.0 µg PSMA I&T content): 0.19 Gy/GBq and 0.10 Gy/GBq | Salivary Glands absorbed dose (77.7 µg PSMA I&T content): 0.04 Gy/GBq | Salivary Glands absorbed dose (79.0 µg PSMA I&T content): 0.15 Gy/GBq | Salivary Glands absorbed dose (79.4 µg PSMA I&T content): 0.12 Gy/GBq | Salivary Glands absorbed dose (79.5 µg PSMA I&T content): 0.26 Gy/GBq and 0.19 Gy/GBq | Salivary Glands absorbed dose (80.4 µg PSMA I&T content): 0.20 Gy/GBq | Salivary Glands absorbed dose (82.0 µg PSMA I&T content): 0.32 Gy/GBq | Salivary Glands absorbed dose (82.2 µg PSMA I&T content): 0.03 Gy/GBq | Salivary Glands absorbed dose (82.6 µg PSMA I&T content): 0.16 Gy/GBq | Salivary Glands absorbed dose (85.3 µg PSMA I&T content): 0.09 Gy/GBq | Salivary Glands absorbed dose (89.2 µg PSMA I&T content): 0.39 Gy/GBq | Salivary Glands absorbed dose (90.0 µg PSMA I&T content): 0.80 Gy/GBq | Salivary Glands absorbed dose (92.6 µg PSMA I&T content): 0.13 Gy/GBq and 0.14 Gy/GBq | Salivary Glands absorbed dose (99.2 µg PSMA I&T content): 0.27 Gy/GBq | Salivary Glands absorbed dose (105.1 µg PSMA I&T content): 0.18 Gy/GBq | Salivary Glands absorbed dose (108.5 µg PSMA I&T content): 0.29 Gy/GBq and 0.10 Gy/GBq | Salivary Glands absorbed dose (110.6 µg PSMA I&T content): 0.03 Gy/GBq | Salivary Glands absorbed dose (119.1 µg PSMA I&T content): 0.28 Gy/GBq
